Laboratory results reported in US20230000089A1, “COMPOSITION ENRICHED IN POLYPHENOLS AND FLAVONOIDS FOR USE AS BIOSTIMULANT AND ANTIMICROBIAL FOR AGRICULTURE APPLICATIONS” (BOTANITEC SPA, priority 2019, published 2023).

Experiments:
Assay in all cases: Inhibition halo
Type in all cases: cell-based
Conditions in all cases: positive control antibiotic 0.1 g/L
Salmonella sp = tested on: Salmonella sp
Procedure: (§1) Routine experiments were performed comparing the inhibition halos, using an antibiotic as a positive control: carbamycin 0.1 g/L for Bacillus sp; chloramphenicol 0.1 g/L for Enterobacter aerogenes; and, ampicillin 0.1 g/L. for Salmonella sp, Staphylococcus aureus and Escherichia coli as shown in Table 7 below.

Staphylococcus aureus = tested on: Staphylococcus aureus
Procedure: as §1

Escherichia coli = tested on: Escherichia coli
Procedure: FIG. 7. Inhibitory effect of the composition of the invention on Escherichia coli.
as §1

Enterobacter aerogenes = tested on: Enterobacter aerogenes
Procedure: as §1

Bacillus sp = tested on: Bacillus sp
Procedure: as §1

**Q.** Which Inhibition halo (Salmonella sp) does the source give for CC1(C)S[C@@H]2[C@H](NC(=O)[C@H](N)c3ccccc3)C(=O)N2[C@H]1C(=O)O [ampicillin] here?
**A.** 28 mm

**Q.** What about the Inhibition halo (Staphylococcus aureus) of the same compound?
**A.** 25 mm

**Q.** And the Inhibition halo (Escherichia coli)?
**A.** 52 mm

**Q.** How did the Inhibition halo (Enterobacter aerogenes) turn out when O=C(N[C@H](CO)[C@H](O)c1ccc([N+](=O)[O-])cc1)C(Cl)Cl [chloramphenicol] was run?
**A.** 50 mm

**Q.** With carbamycin as the compound, how does the Inhibition halo (Bacillus sp) read?
**A.** 31 mm
